Results reported in patent US10683290B2, “Tricyclic compounds as anticancer agents” (BRISTOL-MYERS SQUIBB COMPANY, priority 2015, dated 2020).
pIC50: −log10 of the molar value.

Target: BRD4 (Homo sapiens, UniProt O60885)
Assay: biochemical
Format: binding
Conditions: one of the FRET assays described; read-out: FRET BRD4 IC50

| Structure (SMILES) | pIC50 |
| --- | --- |
| [2H]C([2H])([2H])c1nnn(C)c1-c1cc2c(cc1F)c1ncc(C(C)(C)O)cc1n2C(c1cc(F)ccn1)C1CCOCC1 (racemic) [Example 60, 2-{8-fluoro-5-[(4-fluoropyridin-2-yl)(oxan-4-yl)methyl]-7-[4-(^2H3)methyl-1-methyl-1H-1,2,3-triazol-5-yl]-5H-pyrido[3,2-b]indol-3-yl}propan-2-ol] | > 8.30 |
| [2H]C([2H])([2H])c1nnn(C)c1-c1cc2c(cc1F)c1ncc(C(C)(C)O)cc1n2C(C1=CCCOC1)c1ccccc1 (racemic) [Example 61, 2-{5-[5,6-dihydro-2H-pyran-3-yl(phenyl)methyl]-8-fluoro-7-[4-(^2H3)methyl-1-methyl-1H-1,2,3-triazol-5-yl]-5H-pyrido[3,2-b]indol-3-yl}propan-2-ol] | > 8.30 |
| [2H]C([2H])([2H])c1nnn(C)c1-c1cc2c(cc1F)c1ncc(C(C)(C)O)cc1n2C(CC1COC1)c1ccccc1 (racemic) [Example 66, 2-{8-fluoro-7-[4-(^2H3)methyl-1-methyl-1H-1,2,3-triazol-5-yl]-5-[2-(oxetan-3-yl)-1-phenylethyl]-5H-pyrido[3,2-b]indol-3-yl}propan-2-ol] | > 9.00 |
| Cc1nnn(C)c1-c1ccc2c3ncc(C(C)(C)O)cc3n(C(CCC(F)(F)F)c3ccccn3)c2c1 (single isomer, unassigned) [Example 6, 2-[7-(dimethyl-1H-1,2,3-triazol-5-yl)-5-[4,4,4-trifluoro-1-(pyridin-2-yl)butyl]-5H-pyrido[3,2-b]indol-3-yl]propan-2-ol] | > 8.30 |
| Cc1nnn(C)c1-c1ccc2c3ncc(C(C)(C)O)cc3n(C(CCC(F)(F)F)c3ccccn3)c2c1 (single isomer, unassigned) [Example 7, 2-[7-(dimethyl-1H-1,2,3-triazol-5-yl)-5-[4,4,4-trifluoro-1-(pyridin-2-yl)butyl]-5H-pyrido[3,2-b]indol-3-yl]propan-2-ol] | > 8.30 |
| Cc1nnn(C)c1-c1cc2c(cc1F)c1ncc(C(C)(O)C3CC3)cc1n2[C@H](c1ccccc1F)C1CCOCC1 (single isomer, unassigned) [Example 23] | > 8.30 |
| Cc1nnn(C)c1-c1cc2c(cc1F)c1ncc(C(C)(O)C3CC3)cc1n2[C@H](c1ccccc1F)C1CCOCC1 (single isomer, unassigned) [Example 24] | > 8.30 |
| [2H]C([2H])([2H])c1nnn(C)c1-c1cc2c(cc1F)c1ncc(C(C)(C)O)cc1n2C(c1ccccn1)C1CCOCC1 (single isomer, unassigned) [Example 36, 2-{8-fluoro-7-[4-(^2H3)methyl-1-methyl-1H-1,2,3-triazol-5-yl}-5-[oxan-4-yl(pyridin-2-yl)methyl]-5H-pyrido[3,2-b]indol-3-yl]propan-2-ol] | > 9.00 |
| [2H]C([2H])([2H])c1nnn(C)c1-c1cc2c(cc1F)c1ncc(C(C)(C)O)cc1n2C(c1ccccn1)C1CCOCC1 (single isomer, unassigned) [Example 37, 2-{8-fluoro-7-[4-(^2H3)methyl-1-methyl-1H-1,2,3-triazol-5-yl}-5-[oxan-4-yl(pyridin-2-yl)methyl]-5H-pyrido[3,2-b]indol-3-yl]propan-2-ol] | > 8.30 |
| [2H]C([2H])([2H])c1nnn(C)c1-c1cc2c(cc1F)c1ncc(C(C)(C)O)cc1n2C(CCC)c1ncccc1F (single isomer, unassigned) [Example 38, 2-{8-fluoro-5-[1-(3-fluoropyridin-2-yl)butyl]-7-[4-(^2H3)methyl-1-methyl-1H-1,2,3-triazol-5-yl}-5H-pyrido[3,2-b]indol-3-yl]propan-2-ol] | > 9.00 |
| [2H]C([2H])([2H])c1nnn(C)c1-c1cc2c(cc1F)c1ncc(C(C)(C)O)cc1n2C(CCC)c1ncccc1F (single isomer, unassigned) [Example 39, 2-{8-fluoro-5-[1-(3-fluoropyridin-2-yl)butyl]-7-[4-(^2H3)methyl-1-methyl-1H-1,2,3-triazol-5-yl}-5H-pyrido[3,2-b]indol-3-yl]propan-2-ol] | > 8.30 |
| [2H]C([2H])([2H])c1nnn(C)c1-c1cc2c(cc1F)c1ncc(C(C)(C)O)cc1n2C(c1ncccc1OC)C1CCOCC1 (single isomer, unassigned) [Example 40, 2-{8-fluoro-5-[(3-methoxypyridin-2-yl)(oxan-4-yl)methyl}-7-[4-(^2H3)methyl-1-methyl-1H-1,2,3-triazol-5-yl]-5H-pyrido[3,2-b]indol-3-yl]propan-2-ol] | > 5.82 |
| [2H]C([2H])([2H])c1nnn(C)c1-c1cc2c(cc1F)c1ncc(C(C)(C)O)cc1n2C(c1ncccc1OC)C1CCOCC1 (single isomer, unassigned) [Example 41, 2-{8-fluoro-5-[(3-methoxypyridin-2-yl)(oxan-4-yl)methyl}-7-[4-(^2H3)methyl-1-methyl-1H-1,2,3-triazol-5-yl]-5H-pyrido[3,2-b]indol-3-yl]propan-2-ol] | > 8.30 |
| [2H]C([2H])([2H])c1nnn(C)c1-c1cc2c(cc1F)c1ncc(C(C)(C)O)cc1n2C(c1ncccc1C)C1CCOCC1 (single isomer, unassigned) [Example 42, 2-{8-fluoro-7-[4-(^2H3)methyl-1-methyl-1H-1,2,3-triazol-5-yl]-5-[(3-methylpyridin-2-yl)(oxan-4-yl)methyl}-5H-pyrido[3,2-b]indol-3-yl]propan-2-ol] | > 8.30 |
| [2H]C([2H])([2H])c1nnn(C)c1-c1cc2c(cc1F)c1ncc(C(C)(C)O)cc1n2C(c1ncccc1C)C1CCOCC1 (single isomer, unassigned) [Example 43, 2-{8-fluoro-7-[4-(^2H3)methyl-1-methyl-1H-1,2,3-triazol-5-yl]-5-[(3-methylpyridin-2-yl)(oxan-4-yl)methyl}-5H-pyrido[3,2-b]indol-3-yl]propan-2-ol] | > 8.30 |
| [2H]C([2H])([2H])c1nnn(C)c1-c1cc2c(cc1F)c1ncc(C(C)(C)O)cc1n2C(c1ccc(F)cn1)C1CCOCC1 (single isomer, unassigned) [Example 44, 2-{8-fluoro-5-[(5-fluoropyridin-2-yl)(oxan-4-yl)methyl}-7-[4-(^2H3)methyl-1-methyl-1H-1,2,3-triazol-5-yl]-5H-pyrido[3,2-b]indol-3-yl]propan-2-ol] | > 5.82 |
| [2H]C([2H])([2H])c1nnn(C)c1-c1cc2c(cc1F)c1ncc(C(C)(C)O)cc1n2C(c1ccc(F)cn1)C1CCOCC1 (single isomer, unassigned) [Example 45, 2-{8-fluoro-5-[(5-fluoropyridin-2-yl)(oxan-4-yl)methyl}-7-[4-(^2H3)methyl-1-methyl-1H-1,2,3-triazol-5-yl]-5H-pyrido[3,2-b]indol-3-yl]propan-2-ol] | > 8.30 |
| [2H]C([2H])([2H])c1nnn(C)c1-c1cc2c(cc1F)c1ncc(C(C)(C)O)cc1n2C(c1ncccn1)C1CCOCC1 (single isomer, unassigned) [Example 46] | > 8.30 |
| [2H]C([2H])([2H])c1nnn(C)c1-c1cc2c(cc1F)c1ncc(C(C)(C)O)cc1n2C(c1ncccn1)C1CCOCC1 (single isomer, unassigned) [Example 47, 2-{8-fluoro-7-[4-(^2H3)methyl-1-methyl-1H-1,2,3-triazol-5-yl]-5-[oxan-4-yl(pyrimidin-2-yl)methyl]-5H-pyrido[3,2-b]indol-3-yl}propan-2-ol] | > 8.30 |
| [2H]C([2H])([2H])c1nnn(C)c1-c1cc2c(cc1F)c1ncc(C(C)(C)O)cc1n2C(CCC)c1ccccn1 (single isomer, unassigned) [Example 48, 2-{8-fluoro-7-[4-(^2H3)methyl-1-methyl-1H-1,2,3-triazol-5-yl]-5-[1-(pyridin-2-yl)butyl]-5H-pyrido[3,2-b]indol-3-yl}propan-2-ol] | > 5.82 |
| [2H]C([2H])([2H])c1nnn(C)c1-c1cc2c(cc1F)c1ncc(C(C)(C)O)cc1n2C(CCC)c1ccccn1 (single isomer, unassigned) [Example 49, 2-{8-fluoro-7-[4-(^2H3)methyl-1-methyl-1H-1,2,3-triazol-5-yl]-5-[1-(pyridin-2-yl)butyl]-5H-pyrido[3,2-b]indol-3-yl}propan-2-ol] | > 8.30 |
| [2H]C([2H])([2H])c1nnn(C)c1-c1cc2c(cc1F)c1ncc(C(C)(C)O)cc1n2C(c1cc(OC)ccn1)C1CCOCC1 (single isomer, unassigned) [Example 50, 2-{8-fluoro-5-[(4-methoxypyridin-2-yl)(oxan-4-yl)methyl]-7-[4-(^2H3)methyl-1-methyl-1H-1,2,3-triazol-5-yl]-5H-pyrido[3,2-b]indol-3-yl}propan-2-ol] | > 8.30 |
| [2H]C([2H])([2H])c1nnn(C)c1-c1cc2c(cc1F)c1ncc(C(C)(C)O)cc1n2C(c1cc(OC)ccn1)C1CCOCC1 (single isomer, unassigned) [Example 51, 2-{8-fluoro-5-[(4-methoxypyridin-2-yl)(oxan-4-yl)methyl]-7-[4-(^2H3)methyl-1-methyl-1H-1,2,3-triazol-5-yl]-5H-pyrido[3,2-b]indol-3-yl}propan-2-ol] | > 5.82 |
| [2H]C([2H])([2H])c1nnn(C)c1-c1cc2c(cc1F)c1ncc(C(C)(C)O)cc1n2C(c1cc(C)ccn1)C1CCOCC1 (single isomer, unassigned) [Example 52, 2-{8-fluoro-7-[4-(^2H3)methyl-1-methyl-1H-1,2,3-triazol-5-yl]-5-[(4-methylpyridin-2-yl)(oxan-4-yl)methyl]-5H-pyrido[3,2-b]indol-3-yl}propan-2-ol] | > 8.30 |
| [2H]C([2H])([2H])c1nnn(C)c1-c1cc2c(cc1F)c1ncc(C(C)(C)O)cc1n2C(c1cc(C)ccn1)C1CCOCC1 (single isomer, unassigned) [Example 53, 2-{8-fluoro-7-[4-(^2H3)methyl-1-methyl-1H-1,2,3-triazol-5-yl]-5-[(4-methylpyridin-2-yl)(oxan-4-yl)methyl]-5H-pyrido[3,2-b]indol-3-yl}propan-2-ol] | > 5.82 |
| Cc1nnn(C)c1-c1cc2c(cc1F)c1ncc(C(C)(C)O)cc1n2C(c1ncccn1)C1CCOCC1 (single isomer, unassigned) [Example 54] | > 8.30 |
| Cc1nnn(C)c1-c1cc2c(cc1F)c1ncc(C(C)(C)O)cc1n2C(c1ncccn1)C1CCOCC1 (single isomer, unassigned) [Example 55] | > 5.82 |
